Here are results for one compound from BindingDB's records for doi:10.1021/acs.jnatprod.8b00318 (Indian Institute of Integrative Medicine (Csir), 2019).

SMILES strings stand for the structures.

Assay [1] has as its target Prostaglandin G/H synthase 2 (Homo sapiens) (UniProt P35354). Description: Inhibition of COX2 (unknown origin) assessed as reduction in prostaglandin E2 production incubated for 10 mins before arachidonic acid addition and measured after 25 mins by LC-MS/MS analysis.
Assay [2] deals with Prostaglandin G/H synthase 1 (Ovis aries) (UniProt P05979). Description: Inhibition of ovine COX1 assessed as reduction in prostaglandin E2 production incubated for 10 mins before arachidonic acid addition and measured after 25 mins by LC-MS/MS analysis.

Sequence of Prostaglandin G/H synthase 2 (Homo sapiens) (P35354 whole entry, looked up): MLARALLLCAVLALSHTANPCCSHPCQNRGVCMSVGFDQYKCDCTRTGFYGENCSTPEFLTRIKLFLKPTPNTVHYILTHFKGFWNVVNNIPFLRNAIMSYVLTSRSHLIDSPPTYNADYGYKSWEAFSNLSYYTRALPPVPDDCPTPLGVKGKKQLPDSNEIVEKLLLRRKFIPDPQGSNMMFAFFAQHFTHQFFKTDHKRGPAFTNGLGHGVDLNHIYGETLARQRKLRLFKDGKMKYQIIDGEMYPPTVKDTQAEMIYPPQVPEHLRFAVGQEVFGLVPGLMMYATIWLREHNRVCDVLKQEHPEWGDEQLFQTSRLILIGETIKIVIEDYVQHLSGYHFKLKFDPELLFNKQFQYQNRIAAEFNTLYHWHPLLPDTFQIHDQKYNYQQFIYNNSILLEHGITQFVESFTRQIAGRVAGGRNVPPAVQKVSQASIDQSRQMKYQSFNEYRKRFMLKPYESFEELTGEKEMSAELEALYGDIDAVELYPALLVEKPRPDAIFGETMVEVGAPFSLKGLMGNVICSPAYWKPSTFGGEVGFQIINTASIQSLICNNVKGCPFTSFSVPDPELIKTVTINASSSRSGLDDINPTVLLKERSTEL

One may read the IC50 as the concentration at which inhibition is half-maximal. With `COC(=O)[C@@H](C)c1ccc2c(C)cc(O)c(C)c2c1`, the figures for the IC50 in assay [1] and in assay [2] were 66.1 µM and 31 µM, respectively.
